The record followed here is patent US20260241028A1, “METAL-BASED ANTIBODY-DRUG CONJUGATES AND METHODS OF MAKING AND USING THEREOF” (Laboratory for Synthetic Chemistry and Chemical Biology …, priority 2024, published 2026).

One test relates to NCI-H460. The test can be described thus: In vitro anti-proliferative activity (NBB assay), NCI-H460. It counts as cell-based. The following applies: Table 1; 72 h; read-out: IC50 NCI-H460 lung. As to the method: (§1) Cells (4×10^3 cells/well) were seeded in a microtiter plate (96 wells) and incubated overnight before the treatment. […] After the media was removed, the cells were fixed with formaldehyde (3%; 50 μL) in PBS and stained with NBB reagent (0.05%, 0.1 M sodium acetate, 9% acetic acid; 50 μL) for overnight. The stained cells in each well were washed thrice gently with deionized water and solubilized in sodium hydroxide solution (50 mM; 100 μL). The cell viability was determined by measuring the absorbance of 620 nm in each well by microplate reader. The experiments were repeated in triplicate.

A further test relates to BxPC3. Put plainly: In vitro anti-proliferative activity (NBB assay), BxPC3. The class given is cell-based, human. The following applies: 72 h. As to the method:
as §1

In another test the test system is panel of cell lines. Put plainly: NBB assay, summary over the panel of cell lines. The class given is cell-based. As to the method: as §1
The next test concerns HCC827. Put plainly: In vitro anti-proliferative activity (NBB assay), HCC827. The conditions noted are these: 72 h. The class given is cell-based, human. As to the method: as §1
For the next test, the system named is PANC1. Put plainly: In vitro anti-proliferative activity (NBB assay), PANC1. The class given is cell-based. The following applies: Table 1; 72 h; read-out: IC50 PANC1 pancreas. As to the method:
as §1

A further test has as its system HCT116. Put plainly: In vitro anti-proliferative activity (NBB assay), HCT116. The class given is cell-based. The following applies: Table 1; 72 h; read-out: IC50 HCT116 colon. As to the method:
as §1

Another test has as its system MDA-MB-231. Put plainly: In vitro anti-proliferative activity (NBB assay), MDA-MB-231. It counts as cell-based. The following applies: Table 1; 72 h; read-out: IC50 MDA-MB-231 breast. As to the method:
as §1

For another test, the system named is MHCC97L. The test can be described thus: In vitro anti-proliferative activity (NBB assay), MHCC97L. The following applies: Table 1; 72 h; read-out: IC50 MHCC97L liver. The class given is cell-based. As to the method:
as §1

The test system of a further test is HT29. Put plainly: In vitro anti-proliferative activity (NBB assay), HT29. It counts as cell-based. The conditions noted are these: Table 1; 72 h; read-out: IC50 HT29 colon. As to the method:
as §1

A further test deals with SKOV3. Put plainly: In vitro anti-proliferative activity (NBB assay), SKOV3. It counts as cell-based. The following applies: Table 1; 72 h; read-out: IC50 SKOV3 ovarian. As to the method:
as §1

The subject of the next test is HEK293. The test can be described thus: In vitro anti-proliferative activity (NBB assay), HEK293. It counts as cell-based, human. The following applies: Table 1; 72 h; read-out: IC50 HEK293 kidney. As to the method: as §1
In the next test the test system is A549. Put plainly: In vitro anti-proliferative activity (NBB assay), A549. The class given is cell-based. The conditions noted are these: Table 1; 72 h; read-out: IC50 A549 lung. As to the method: as §1
For another test, the system named is NCI-N87. The test can be described thus: In vitro anti-proliferative activity (NBB assay), NCI-N87. It counts as cell-based. The following applies: Table 1; 72 h; read-out: IC50 NCI-N87 gastric. As to the method:
as §1

The subject of another test is Calu3. The test can be described thus: In vitro anti-proliferative activity (NBB assay), Calu3. The class given is cell-based, human. The conditions noted are these: 72 h. As to the method:
as §1

The test system of a further test is SW1990. The test can be described thus: In vitro anti-proliferative activity (NBB assay), SW1990. The class given is cell-based, human. The conditions noted are these: 72 h. As to the method: as §1
A further test concerns SKBR3. The test can be described thus: In vitro anti-proliferative activity (NBB assay), SKBR3. The class given is cell-based. The conditions noted are these: 72 h. As to the method: as §1
Test [1] concerns TROP2-overexpressed cancer cells (HCC827, Calu3, BxPC3, SW1990, SKBR3). The test can be described thus: NBB assay, summary over TROP2-overexpressed cancer cells. The class given is cell-based. The conditions noted are these: all the cells of Table 2. As to the method: as §1
The subject of test [2] is TROP2-overexpressed cancer cells (HCC827, Calu3, BxPC3, SW1990). The test can be described thus: Flow cytometric binding study, TROP2-overexpressed cells. It counts as cell-based, human. The following applies: flow cytometry, 4° C., 1 h. As to the method: Cells (2×10^5 cells/tube) were suspended in FACS staining buffer (2% FBS in PBS) into a 1.5 mL eppendorf tube. They were incubated with Sacituzumab, ADC-Au or IgG control respectively in staining buffer (100 μL) at 4° C. After 1 h, the cell suspensions were centrifuged at 1500 rpm for 3 min at 4° C. and washed with staining buffer (1 mL) twice to discard unbound antibodies. The cells were then incubated with Alexa Fluor 594 goat anti-human secondary antibody at 4° C. for 1 h and then subject to centrifugation. The cells were washed twice again and were resuspended in staining buffer. The mean fluorescence intensities (MFI) were measured using Beckman Cytoflex S Flow Cytometer.

The mark [3] stands for this setting: Table 1, read-out: IC50 BxPC3 pancreas.
Setting [4] is: Table 1, read-out: IC50 HCC827 lung.
[5] abbreviates: Table 1, read-out: IC50 Calu3 lung.
The mark [6] stands for this setting: Table 1, read-out: IC50 SW1990 pancreas.
The mark [7] stands for this setting: Table 1, read-out: IC50 SKBR3 breast.

Like-named read-outs stand apart in the source and are kept apart here.

The IC50 is the concentration needed to halve the response being measured. `O=C(O)c1ccc(C2=c3ccc4[n]3[Au-]35[n]6c(ccc6C(c6ccccc6)=C6C=CC2=[N+]63)C(c2ccccc2)=C2C=CC(=[N+]25)C=4c2ccccc2)cc1.[Cl-]` (centres unmarked) [AuCOOH]: the IC50 is 420 nM with NCI-H460; 840 nM with BxPC3 (setting [3]); 1770 nM in the test with HCC827 (setting [4]); 2430 nM in the test with PANC1; 710 nM with HCT116; 710 nM in the test on MDA-MB-231. Besides, the IC50 in the test with MHCC97L was determined as 2650 nM; in the test with HT29, 640 nM; in the test with SKOV3, 2890 nM; with HEK293, 650 nM; in the test on A549, 690 nM; in the test with NCI-N87 it was 1310 nM. In addition, the concentration for half-maximal inhibition (IC50) with Calu3 (setting [5]) is 1760 nM; with SW1990 (setting [6]), 2190 nM; with SKBR3 (setting [7]), 270 nM. Further, the “cytotoxicity / potency compared with the other gold complexes” value with panel of cell lines is listed as “lowest cytotoxicity”.
For the molecule `C1=CC2=[N+]3C1=C(c1ccccc1)c1ccc4[n]1[Au-]31[n]3c(ccc3=C(c3ccccc3)C3=[N+]1C(=C4c1ccccc1)C=C3)=C2c1ccccc1.Cl` [AuTPP, gold (III) tetraphenylporphyrin, reference compound], the IC50 in the test on NCI-H460 was 120 nM; in the test with BxPC3 (setting [3]), 80 nM; in the test with HCC827 (setting [4]), 140 nM; with PANC1 it was 100 nM; with HCT116, 150 nM; in the test on MDA-MB-231, 180 nM. The IC50 came out at 150 nM in the test on MHCC97L; 120 nM in the test with HT29; 90 nM in the test on SKOV3; 130 nM in the test on HEK293; 90 nM in the test with A549; 100 nM in the test on NCI-N87. Besides, the IC50 with Calu3 (setting [5]) turned out to be 290 nM; with SW1990 (setting [6]), 170 nM; in the test on SKBR3 (setting [7]), 80 nM.
As to “Sacituzumab: TROP2-targeted monoclonal antibody (MCE)”, the IC50 was greater than 2000 nM in the test on BxPC3 (Table 2, Example 1 (Sacituzumab ADC), read-out: IC50 BxPC3); greater than 2000 nM in the test on HCC827 (Table 2, Example 1 (Sacituzumab ADC), read-out: IC50 HCC827); greater than 2000 nM in the test on Calu3 (Table 2, Example 1 (Sacituzumab ADC), read-out: IC50 Calu3); greater than 2000 nM in the test on SW1990 (Table 2, Example 1 (Sacituzumab ADC), read-out: IC50 SW1990); greater than 2000 nM with SKBR3 (Table 2, Example 1 (Sacituzumab ADC), read-out: IC50 SKBR3). In addition, the cell growth inhibition entry in test [1] is given as “not obvious”. For the same molecule, in test [2], the “specific binding to TROP2-overexpressed cancer cells” value is “significant specific-binding”.
